Results from PubChem BioAssay AID1963875 (Molecular Pharmacology Branch, DTP, NCI, 2024).

Test system: KRAS-mutant PDC complex spheroid viability
Assay: Anticancer human tumor 186277-243-T-J2-PDC patient-derived colon adenocarcinoma cell line growth inhibition [KRAS2]
Conditions: for IC50: curve of first compound; for viability, T/C: stronger effect = lower value
In short: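 Combination screen of spheroid viability in tumor-cell co-cultures with endothelial (HUVEC) and mesenchymal stem cell stroma. Each agent was tested in half-log dilutions, topping at clinical Cmax or at 10 microM without a known Cmax.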

[1] = second compound 0.1 µM, first compound 0.0316 µM
[2] = second compound 0.1 µM, first compound 0.1 µM
[3] = second compound 0.1 µM, first compound 0.316 µM
[4] = second compound 0.1 µM, first compound 1 µM
[5] = second compound 0.1 µM, first compound 3.16 µM
[6] = second compound 0.1 µM, first compound 10 µM
[7] = second compound 0.316 µM, first compound 0.0316 µM
[8] = second compound 0.316 µM, first compound 0.1 µM
[9] = second compound 0.316 µM, first compound 0.316 µM
[10] = second compound 0.316 µM, first compound 1 µM
[11] = second compound 0.316 µM, first compound 3.16 µM
[12] = second compound 0.316 µM, first compound 10 µM
[13] = second compound 1 µM, first compound 0.0316 µM
[14] = second compound 1 µM, first compound 0.1 µM
[15] = second compound 1 µM, first compound 0.316 µM
[16] = second compound 1 µM, first compound 1 µM
[17] = second compound 1 µM, first compound 3.16 µM
[18] = second compound 1 µM, first compound 10 µM
[19] = second compound 3.16 µM, first compound 0.0316 µM
[20] = second compound 3.16 µM, first compound 0.1 µM
[21] = second compound 3.16 µM, first compound 0.316 µM
[22] = second compound 3.16 µM, first compound 1 µM
[23] = second compound 3.16 µM, first compound 3.16 µM
[24] = second compound 3.16 µM, first compound 10 µM
[25] = second compound 10 µM, first compound 0.0316 µM
[26] = second compound 10 µM, first compound 0.1 µM
[27] = second compound 10 µM, first compound 0.316 µM
[28] = second compound 10 µM, first compound 1 µM
[29] = second compound 10 µM, first compound 3.16 µM
[30] = second compound 10 µM, first compound 10 µM
[31] = second compound 0.1 µM, first compound 0.01 µM
[32] = second compound 0.316 µM, first compound 0.01 µM
[33] = second compound 1 µM, first compound 0.01 µM
[34] = second compound 3.16 µM, first compound 0.01 µM
[35] = second compound 10 µM, first compound 0.01 µM
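Wherever viability, T/C is given: viability read after seven days of compound exposure; 100% = DMSO vehicle-treated spheroids so lower means less viable.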

Row | Structure (SMILES) | IC50 (second compound 0.1 µM) | IC50 (second compound 0.316 µM) | IC50 (second compound 1 µM) | IC50 (second compound 3.16 µM) | IC50 (second compound 10 µM) | viability, T/C [1] | viability, T/C [2] | viability, T/C [3] | viability, T/C [4] | viability, T/C [7] | viability, T/C [8] | viability, T/C [9] | viability, T/C [10] | viability, T/C [13] | viability, T/C [14] | viability, T/C [15] | viability, T/C [16] | viability, T/C [19] | viability, T/C [20] | viability, T/C [21] | also measured
1 | CC(C)NCC(C(=O)N1CCN(c2ncnc3c2C(C)CC3O)CC1)c1ccc(Cl)cc1 (stereo not given) + CNCc1ccccc1-c1csc(C(C)Nc2nc(C)nc3cc(OC)c(OC)cc23)c1 | 585 nM | 469 nM | 298 nM | < 31.6 nM | < 31.6 nM | 111% | 106% | 61.2% | 37.8% | 121% | 96.6% | 60.3% | 29.4% | 109% | 92.4% | 44.9% | 24.1% | 0.41% | 9.82% | 0.48% | viability, T/C [5]: 24.1%; viability, T/C [6]: 11.2%; viability, T/C [11]: 19.6%; viability, T/C [12]: 10.6%; viability, T/C [17]: 13.3%; viability, T/C [18]: 8.81%; viability, T/C [22]: 1.02%; viability, T/C [23]: 0.58%; viability, T/C [24]: 0.47%; viability, T/C [25]: 0.14%; viability, T/C [26]: 0.12%; viability, T/C [27]: 0.12%; viability, T/C [28]: 0.12%; viability, T/C [29]: 0.13%; viability, T/C [30]: 0.2%
2 | CC1COCCN1c1cc(-c2ccnn2C)c2ccnc(-c3ccn[nH]3)c2n1 (stereo not given) + CNCc1ccccc1-c1csc(C(C)Nc2nc(C)nc3cc(OC)c(OC)cc23)c1 | 20 nM | 21.2 nM | 19.6 nM | < 10 nM | < 10 nM | 18.4% | 5.46% | 3.99% | 3.43% | 24.2% | 8.14% | 3.97% | 3.29% | 15.5% | 4.99% | 3.97% | 3.82% | 1.99% | 0.3% | 0.17% | viability, T/C [31]: 97.7%; viability, T/C [5]: 4.08%; viability, T/C [32]: 98.4%; viability, T/C [11]: 4.28%; viability, T/C [33]: 98.9%; viability, T/C [17]: 4.51%; viability, T/C [34]: 23.7%; viability, T/C [22]: 0.22%; viability, T/C [23]: 0.31%; viability, T/C [35]: 0.13%; viability, T/C [25]: 0.1%; viability, T/C [26]: 0.09%; viability, T/C [27]: 0.09%; viability, T/C [28]: 0.1%; viability, T/C [29]: 0.15%
3 | CCN1CCN(Cc2ccc(Nc3ncc(F)c(-c4cc(F)c5nc(C)n(C(C)C)c5c4)n3)nc2)CC1 + CNCc1ccccc1-c1csc(C(C)Nc2nc(C)nc3cc(OC)c(OC)cc23)c1 | > 1000 nM | 970 nM | 687 nM | 115 nM | < 3.16 nM | 93% | 117% | 171% | 72.5% | 106% | 144% | 144% | 48.3% | 96.2% | 132% | 119% | 23.6% | 118% | 56% | 14% | viability, T/C (second compound 0.1 µM, first compound 0.00316 µM): 97.5%; viability, T/C [31]: 86.7%; viability, T/C (second compound 0.316 µM, first compound 0.00316 µM): 87%; viability, T/C [32]: 91.3%; viability, T/C (second compound 1 µM, first compound 0.00316 µM): 90%; viability, T/C [33]: 85.5%; viability, T/C (second compound 3.16 µM, first compound 0.00316 µM): 80.7%; viability, T/C [34]: 85.4%; viability, T/C [22]: 0.14%; viability, T/C (second compound 10 µM, first compound 0.00316 µM): 0.18%; viability, T/C [35]: 0.37%; viability, T/C [25]: 0.19%; viability, T/C [26]: 0.15%; viability, T/C [27]: 0.41%; viability, T/C [28]: 0.15%
4 | CCNC(=O)CC1N=C(c2ccc(Cl)cc2)c2cc(OC)ccc2-n2c(C)nnc21 (stereo not given) + CNCc1ccccc1-c1csc(C(C)Nc2nc(C)nc3cc(OC)c(OC)cc23)c1 | > 10000 nM | > 10000 nM | 5550 nM | 379 nM | < 31.6 nM | 106% | 110% | 123% | 149% | 106% | 111% | 138% | 127% | 98.9% | 112% | 146% | 106% | 98.6% | 108% | 59.2% | viability, T/C [5]: 111%; viability, T/C [6]: 70.6%; viability, T/C [11]: 84.9%; viability, T/C [12]: 58.1%; viability, T/C [17]: 62.3%; viability, T/C [18]: 37.6%; viability, T/C [22]: 1.92%; viability, T/C [23]: 0.58%; viability, T/C [24]: 0.76%; viability, T/C [25]: 0.22%; viability, T/C [26]: 0.22%; viability, T/C [27]: 0.17%; viability, T/C [28]: 0.12%; viability, T/C [29]: 0.11%; viability, T/C [30]: 0.34%
5 | Cn1nccc1Nc1nccc(-c2cc3c(s2)C(C)(C)N(CCN2CCOCC2)C3=O)n1 + CNCc1ccccc1-c1csc(C(C)Nc2nc(C)nc3cc(OC)c(OC)cc23)c1 | 293 nM | 304 nM | 205 nM | 91.7 nM | < 31.6 nM | 99.2% | 98.3% | 46.1% | 13.5% | 94.4% | 97.3% | 48.2% | 9.73% | 92% | 105% | 20.6% | 4.12% | 81.7% | 47.4% | 1.6% | viability, T/C [5]: 7.74%; viability, T/C [6]: 6.21%; viability, T/C [11]: 4.43%; viability, T/C [12]: 7.35%; viability, T/C [17]: 1.64%; viability, T/C [18]: 2.61%; viability, T/C [22]: 1.86%; viability, T/C [23]: 0.22%; viability, T/C [24]: 0.1%; viability, T/C [25]: 0.17%; viability, T/C [26]: 0.15%; viability, T/C [27]: 0.1%; viability, T/C [28]: 0.09%; viability, T/C [29]: 0.09%; viability, T/C [30]: 0.16%
